The conditions of data set [1]: 101.33 kPa, Liquid, Vibrating tube method.
Data set [2] is described as follows: refractive index (Na D-line) (dimensionless). As to conditions: 101.33 kPa, Liquid, Standard Abbe refractometry.

± gives the expanded uncertainty stated by the source.

With `CC(=O)OCCC(C)C` [3-methylbutyl ethanoate], in data set [1] (298.2 K), the mass density was determined as 866.7 ± 0.2 kg/m3. Besides, the refractive index in data set [2] (298.2 K) came out at 1.3975 ± 0.0008.

As to `CC(=O)CCC(C)C` [5-methyl-2-hexanone], the mass density in data set [1] (293.2 K) is on record as 887.9 ± 0.2 kg/m3. Further, in data set [2] (293.2 K), the refractive index is listed as 1.4049 ± 0.0008.

As for `O` [water], the refractive index in data set [2] (298.2 K) is recorded as 1.3324 ± 0.0008.

Source of the values: the NIST ThermoML archive (doi:10.1016/j.fluid.2012.09.038).
